# Results as given in patent US20040248919A1, “Fluorinated trienes and their use as rxr modulators” (priority 2001, published 2004).
# Read-outs that look alike come from different tables or passages of the source.
# Target: T1, RXRα:RXRα homodimer (Homo sapiens, UniProt P19793)
# T1 sequence (P19793 1-462): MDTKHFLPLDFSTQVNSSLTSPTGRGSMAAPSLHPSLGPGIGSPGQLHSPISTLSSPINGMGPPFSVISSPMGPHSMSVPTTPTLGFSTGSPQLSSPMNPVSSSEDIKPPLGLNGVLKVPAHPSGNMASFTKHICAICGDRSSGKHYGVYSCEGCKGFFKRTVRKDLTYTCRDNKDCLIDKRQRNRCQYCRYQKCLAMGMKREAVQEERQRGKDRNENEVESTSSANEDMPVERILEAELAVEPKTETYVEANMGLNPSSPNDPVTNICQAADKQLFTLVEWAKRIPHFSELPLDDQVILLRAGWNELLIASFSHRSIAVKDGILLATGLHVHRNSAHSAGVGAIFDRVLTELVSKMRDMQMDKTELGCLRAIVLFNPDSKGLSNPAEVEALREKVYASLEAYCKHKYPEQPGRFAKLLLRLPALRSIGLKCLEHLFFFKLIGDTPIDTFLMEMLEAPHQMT
# Test: RXR homodimer co-transfection assay (antagonist) in CV-1 cells
# Assay type: cell-based
# Conditions: for IC50: in the presence of 3.2×10^−8 M LGD1069, read-out: RXR Antagonist CTF IC50
# From the text: In the co-transfection assay, cloned cDNA for one or more IRs (e.g. human RARα, RXRα, or PPARγ), alone or in combination (i.e. for heterodimer assays) under the control of a constitutive promoter (e.g., the SV 40, RSV or CMV promoter) is introduced by transfection (a procedure to introduce exogenous genes into cells) into a background cell substantially devoid of endogenous IRs. These introduced gene(s) direct the recipient cells to make the IR protein(s) of interest. A further gene is also introduced (co-transfected) into the same cells in conjunction with the IR gene(s). This further gene, comprising the cDNA for a reporter protein, such as firefly luciferase (LUC), controlled by an appropriate hormone responsive promoter containing a hormone response element (HRE). This reporter plasmid functions as a reporter for the transcriptional-modulating activity of the target IR(s). Thus, the reporter acts as a surrogate for the products (mRNA then protein) normally expressed by a gene under control of the target receptor(s) and their native hormone(s). The co-transfection assay can detect small molecule agonists or antagonists, including partial agonists and antagonist, of target IRs. Exposing the transfected cells to an agonist ligand compound increases reporter activity in the transfected cells. This activity can be conveniently measured, e.g., by increasing luciferase production and enzymatic activity, which reflects compound-dependent, IR-mediated increases in reporter transcription. […] Increasing concentrations of an antagonist will decrease the reporter signal (e.g., luciferase production). The co-transfection assay is therefore useful to detect both agonists and antagonists of specific IRs. Furthermore, it determines not only whether a compound interacts with a particular IR, but whether this interaction mimics (agonizes) or blocks (antagonizes) the effects of native or synthetic regulatory molecules on target gene expression, as well as the specificity and strength of this interaction. […] To determine agonist and antagonist activity of the modulator compounds of the present invention, the CV-1 cells were transiently transfected by calcium phosphate coprecipitation according to the procedure of Berger et al., 41 J. Steroid Biochem. Mol. Biol., 733 (1992) with the receptor expressing plasmid […] et al., 345 Nature, 224 (1990), the disclosures of which are herein incorporated by reference at a concentration of 10 ng/well. The receptor expression plasmid was cotransfected along with a reporter plasmid at 50 ng/well, the internal control plasmid pRS-β-Gal at 50 ng/well and filler DNA, pGEM, at 90 ng/well. The reporter plasmid […], which contains an RXRE (retinoid X receptor response element, as described in Mangelsdorf et al., 66 Cell, 555 (1991), the disclosure of which is herein incorporated by reference, was used in transfections for the RXR homodimer assay. This reporter plasmid contains the cDNA for firefly luciferase (LUC) under the control of a promoter containing the RXR response element. As noted above, pRS-β-Gal, coding for constitutive expression of E. coli β-galactosidase (β-Gal), was included as an internal control for evaluation of transfection efficiency and compound toxicity. Six hours after transfection, media was removed and the cells were washed with phosphate-buffered saline (PBS). Media containing compounds of the present invention in concentrations ranging from 10^-10 to 10^-5 M were added to the cells. […] Ligand Pharmaceuticals, Inc.), compounds with known agonist activity on RXRs, were added at similar concentrations to provide a reference point for analysis of the agonist activity of the compounds of the present invention. […] Ligand Pharmaceuticals, Inc.). Retinoid purity was established as greater than 99% by reverse phase high-performance liquid chromatography. Retinoids were dissolved in dimethylsulfoxide for use in the transcriptional activation assays. Two to three replicates were used for each sample. […]
# [1] = CV-1 cells, antagonist efficacy as % of maximal inhibition, read-out: RXR Antagonist CTF % Efficacy
compound,measurement,setting,value
"C/C(=C/C=C(F)/C(C)=C/C(=O)O)c1cc(C(C)(C)C)cc(C(C)(C)C)c1OCC(F)F [Example 1, 7-[3,5-di-tert-butyl-2-(2,2-difluoroethoxy)-phenyl]4-fluoro-3-methyl-octa-2,4,6-trienoic acid]",Emax,[1],100%
same,IC50,CV-1 cells,4.84 µM
"C/C(=C/C(F)=C/C(C)=C/C(=O)O)c1cc(C(C)(C)C)cc(C(C)(C)C)c1OCC(F)F [Example 2, 7-[3,5-Di-tert-butyl-2-(2,2-difluoroethoxy)-phenyl]-5-fluoro-3-methyl-octa-2,4,6-trienoic acid]",Emax,[1],100%
same,IC50,CV-1 cells,8.71 µM
"CCCCOc1c(\C(C)=C/C=C/C(=C/C(=O)O)C(F)(F)F)cc(C(C)C)cc1C(C)C [Example 3, (2Z,4E,6Z)-7-(2-Butoxy-3,5-diisopropylphenyl)-3-trifluoromethyl-octa-2,4,6-trienoic acid]",Emax,[1],83%
same,IC50,CV-1 cells,0.921 µM
"CCCCOc1c(\C(C)=C/C=C/C(=C\C(=O)O)C(F)(F)F)cc(C(C)C)cc1C(C)C [Example 4, (2E,4E,6Z)-7-(2-Butoxy-3,5-diisopropylphenyl)-3-trifluoromethyl-octa-2,4,6-trienoic acid]",Emax,[1],29%
"CCOc1c(\C(=C/C=C/C(C)=C/C(=O)O)C(F)(F)F)cc(C(C)(C)C)cc1C(C)(C)C [Example 5, (2E,4E,6E)-3-methyl-7-(2-ethoxy-3,5-di-tert-butylphenyl)-8,8,8-trifluoroocta-2,4,6-trienoic acid]",Emax,"CV-1, read-out: RXR Antagonist CTF % Efficacy",30%
same,IC50,CV-1 cells,0.038 µM
